Experimental data taken from US20120214862A1, “MODULATION OF FACTOR 7 EXPRESSION” (ISIS Pharmaceuticals, Inc., priority 2009, published 2012).
In the oligonucleotide strings, read from the 5' end, every base follows the letter of its sugar. An asterisk marks phosphorothioate; unmarked linkages are phosphodiester. Other units and linkages are bracketed, terminal groups are in braces. A string of capitals states the bases alone. e = 2'-O-(2-methoxyethyl) (MOE); [5mC] = 5-methylcytosine; d = 2'-deoxy (DNA)

What was measured:
[1] = test system: extrinsic pathway of blood coagulation; assay: Prothrombin Time (PT) in platelet poor plasma of treated mice, reported as INR; assay type: in vivo, mouse
Experimental: (§1) Prothrombin Time (PT) and Activated Partial Thromboplastin Time (aPTT) were measured using platelet poor plasma (PPP) from mice treated with ISIS 403102. PT and aPTT values provided in Table 20 are reported as International Normalized Ratio (INR) values. INR values for PT and aPTT were determined by dividing the PT or aPTT value for the experimental group by the PT or aPTT for the PBS treated group. This ratio was then raised to the power of the International Sensitivity Index (ISI) of the tissue factor used.
(§2) Prothrombin Time (PT) and Activated Partial Thromboplastin Time (aPTT) were measured using platelet poor plasma (PPP) from mice treated with ISIS 403102. PT and aPTT values provided in Table 22 are reported as International Normalized Ratio (INR) values. INR values for PT and aPTT were determined by dividing the PT or aPTT value for the experimental group (i.e. 50 mg/kg treatment with ISIS 403102) by the PT or aPTT for the PBS treated group. This ratio was then raised to the power of the International Sensitivity Index (ISI) of the tissue factor used.
(§3) Prothrombin Time (PT) and Activated Partial Thromboplastin Time (aPTT) were measured using platelet poor plasma (PPP) from mice treated with ISIS 403102. PT and aPTT values provided in Table 24 are reported as International Normalized Ratio (INR) values. INR values for PT and aPTT were determined by dividing the PT or aPTT value for the experimental group (i.e. 50 mg/kg treatment with ISIS 403102) by the PT or aPTT for the PBS treated group. This ratio was then raised to the power of the International Sensitivity Index (ISI) of the tissue factor used.

[2] = test system: intrinsic pathway of blood coagulation; assay: Activated Partial Thromboplastin Time (aPTT) in platelet poor plasma of treated mice, reported as INR; assay type: in vivo, mouse
Experimental: as §1, §2, §3

[3] = test system: human Factor 7 mRNA; assay: Inhibition of human Factor 7 mRNA by 2-10-2 MOE shortmers in HepB3 cells, electroporation, 1,000 nM; assay type: cell-based; details: electroporation, 1,000 nM oligonucleotide, approximately 24 hours, relative to untreated control cells
Procedure, shortened: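 14-mer 2-10-2 2′-MOE gapmers, full phosphorothioate, 5-methylcytidines, electroporated at 1,000 nM into HepB3 cells (20,000/well). After ~24 h, mRNA quantified by real-time RT-PCR, normalized to RIBOGREEN total RNA; percent inhibition relative to untreated cells.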

[4] = BALB/c mice, 5 mg/kg s.c. twice a week for 3 weeks
[5] = BALB/c mice, 10 mg/kg s.c. twice a week for 3 weeks
[6] = BALB/c mice, 25 mg/kg s.c. twice a week for 3 weeks
[7] = BALB/c mice, 50 mg/kg s.c. twice a week for 3 weeks
[8] = BALB/c mice, 50 mg/kg, 1 dose, 1 day after last dose
[9] = BALB/c mice, 50 mg/kg, 1 dose, 3 days after last dose
[10] = BALB/c mice, 50 mg/kg, 2 doses, 3 days after last dose
[11] = BALB/c mice, 50 mg/kg, 4 doses, 3 days after last dose
[12] = BALB/c mice, 50 mg/kg, 6 doses, 2 days after last dose
[13] = BALB/c mice, 50 mg/kg, 6 doses, 7 days after last dose
[14] = BALB/c mice, 50 mg/kg, 6 doses, 14 days after last dose
[15] = BALB/c mice, 50 mg/kg, 6 doses, 28 days after last dose
[16] = BALB/c mice, 50 mg/kg, 6 doses, 42 days after last dose
[17] = BALB/c mice, 50 mg/kg, 6 doses, 56 days after last dose
[18] = BALB/c mice, single dose 50 mg/kg, day 1
[19] = BALB/c mice, single dose 50 mg/kg, day 2
[20] = BALB/c mice, single dose 50 mg/kg, day 3
[21] = BALB/c mice, single dose 50 mg/kg, day 4
[22] = BALB/c mice, single dose 50 mg/kg, day 6
[23] = BALB/c mice, single dose 50 mg/kg, day 8
[24] = BALB/c mice, single dose 50 mg/kg, day 12
[25] = BALB/c mice, single dose 50 mg/kg, day 24
[26] = BALB/c mice, single dose 50 mg/kg, day 56
[27] = Example 11, 5-50 mg/kg sc twice a week for 3 weeks
[28] = Example 13, 6 doses, day 7 to day 56

## CCATAGAACAGCTTCACAGG (sugars from the 5' end e5 d10 e5, backbone and methylation of C not given here) [ISIS 403102]
[1]; [4]
  PT INR: 1.09
[1]; [5]
  PT INR: 1.33
[1]; [6]
  PT INR: 2.33
[1]; [7]
  PT INR: 4.37
[1]; [8]
  PT INR: 1.04
[1]; [9]
  PT INR: 1.20
[1]; [10]
  PT INR: 1.43
[1]; [11]
  PT INR: 2.13
[1]; [12]
  PT INR: 1.64
[1]; [13]
  PT INR: 2.08
[1]; [14]
  PT INR: 1.37
[1]; [15]
  PT INR: 0.96
[1]; [16]
  PT INR: 1.00
[1]; [17]
  PT INR: 0.99
[1]; [18]
  PT INR: 1.11
[1]; [19]
  PT INR: 1.64
[1]; [20]
  PT INR: 1.81
[1]; [21]
  PT INR: 1.97
[1]; [22]
  PT INR: 1.59
[1]; [23]
  PT INR: 1.55
[1]; [24]
  PT INR: 1.30
[1]; [25]
  PT INR: 1.12
[1]; [26]
  PT INR: 1.10
[1]; [27]
  PT compared to the control: significantly prolonged
[1]; [28]
  PT over time: PT decreased
[1]; single dose 50 mg/kg, day 1
  PT INR: 1.11 INR
[1]; single dose 50 mg/kg, day 4
  PT INR: 1.97 INR
[1]; single dose 50 mg/kg, day 56
  PT INR: 1.10 INR
[2]; [4]
  aPTT INR: 1.05
[2]; [5]
  aPTT INR: 1.04
[2]; [6]
  aPTT INR: 1.09
[2]; [7]
  aPTT INR: 1.16
[2]; [8]
  aPTT INR: 1.08
[2]; [9]
  aPTT INR: 1.10
[2]; [10]
  aPTT INR: 1.29
[2]; [11]
  aPTT INR: 1.53
[2]; [12]
  aPTT INR: 1.62
[2]; [13]
  aPTT INR: 1.67
[2]; [14]
  aPTT INR: 1.25
[2]; [15]
  aPTT INR: 0.90
[2]; [16]
  aPTT INR: 1.00
[2]; [17]
  aPTT INR: 0.98
[2]; [18]
  aPTT INR: 1.00
[2]; [19]
  aPTT INR: 1.05
[2]; [20]
  aPTT INR: 1.24
[2]; [21]
  aPTT INR: 1.15
[2]; [22]
  aPTT INR: 1.23
[2]; [23]
  aPTT INR: 1.18
[2]; [24]
  aPTT INR: 1.18
[2]; [25]
  aPTT INR: 1.02
[2]; [26]
  aPTT INR: 0.97
[2]; [27]
  aPTT compared to the control: slightly prolonged
[2]; [28]
  aPTT over time: aPTT decreased
[2]; single dose 50 mg/kg, day 4
  aPTT INR: 1.24 INR
[2]; single dose 50 mg/kg, day 56
  aPTT INR: 0.97 INR
[2]; single dose 50 mg/kg, starting value (day not given, day 1 implied)
  aPTT INR: 1.00 INR

## 407939 (antisense eT*eG*e[5mC]*eA*eG*d[5mC]*d[5mC]*d[5mC]*dG*dG*d[5mC]*dA*d[5mC]*d[5mC]*d[5mC]*eA*eG*e[5mC]*eG*eA) [compound 407939]
[3]
  % inhibition of human Factor 7 mRNA: 81%
